Results as given in PMC9300616, “Grape seed proanthocyanidin extract inhibits DNA and protein damage and labile iron, enzyme, and cancer cell activities” (Scientific Reports, 2022).

What was measured:
[1] = DPPH free radical-scavenging assay; format: biochemical; details: concentration that scavenges free radicals by 50%; mean ± SD of three experiments
Procedure: The estimation was based on the method reported by Habib et al.[61]. The results were expressed as the percentage inhibition of the DPPH^· radical. The percentage of inhibition of DPPH^· radical was calculated using the following equation:1 %ofDPPH^·inhibition=Abscontrol-Abssample/Abscontrol×100
where Abs control is the absorbance of DPPH^· solution without the tested sample.

[2] = ABTS free radical-scavenging assay; format: biochemical; details: for ABTS IC50: concentration that scavenges free radicals by 50%, mean ± SD of three experiments
Procedure: Determination was conducted based on the method reported by Platat et al.[62]. The results were expressed as the percentage of ABTS^· radical inhibition calculated using Eq. (1) as described above.

mushroom tyrosinase = experiment: Tyrosinase inhibition assay; format: biochemical; details: mean ± SD of three experiments
Procedure: Tyrosinase inhibitory activity was measured as described by Habib et al.[17]. […] After 10 min of incubation at 37 °C, 1 mL of mushroom tyrosinase (50 units/mL, dissolved in 0.2 M phosphate buffer, pH 6.8), was added to the mixture. The absorbance was recorded after 10 min at 475 nm. A 50% ethanol solution was used as a blank, and 1 mL of deionized water was used as the control. % Tyrosinase inhibitory activity was calculated according to Eq. (1) as described above.

Porcine α-amylase = biological target: T1, Porcine α-amylase (Sus scrofa, UniProt P00690); experiment: Porcine α-amylase inhibition assay; format: biochemical; details: mean ± SD of three experiments
T1 sequence (P00690 16-511): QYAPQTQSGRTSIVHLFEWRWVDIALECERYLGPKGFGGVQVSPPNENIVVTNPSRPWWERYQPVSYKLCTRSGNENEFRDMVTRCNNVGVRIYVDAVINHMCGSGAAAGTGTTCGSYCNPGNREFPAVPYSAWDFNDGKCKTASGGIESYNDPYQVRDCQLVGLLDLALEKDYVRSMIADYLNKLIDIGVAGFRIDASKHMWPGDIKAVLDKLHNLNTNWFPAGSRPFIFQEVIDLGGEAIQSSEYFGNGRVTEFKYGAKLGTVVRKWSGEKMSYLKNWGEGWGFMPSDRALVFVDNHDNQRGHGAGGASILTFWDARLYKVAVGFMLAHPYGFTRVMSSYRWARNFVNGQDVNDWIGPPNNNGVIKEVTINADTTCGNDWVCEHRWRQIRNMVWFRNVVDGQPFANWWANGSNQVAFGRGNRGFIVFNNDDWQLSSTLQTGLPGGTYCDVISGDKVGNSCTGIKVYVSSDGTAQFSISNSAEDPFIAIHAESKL
Procedure: Inhibition of porcine α-amylase activity was described by Habib et al.[17]. […] For 10 min, the mixture was incubated at 25 °C, and then 50 µL 1% starch solution in 20 mM sodium phosphate buffer at pH 6.9 with 6 mM NaCl was added. The mixture was incubated at 25 °C, followed by addition of a color reagent (1 mL dinitrosalicylic acid). To stop the reaction, the mixture was kept for 10 min in a water bath at 100 °C and then cooled to 25 °C. 1 mL of deionized water was added, and the absorbance was read at 540 nm using a 96-well microplate reader. Inhibition of porcine α-amylase was estimated using Eq. (1) as described above.

pBR322 plasmid DNA = experiment: DNA damage by free radicals (H2O2 + UV), agarose gel; format: biochemical; details: for supercoiled (SC) form of pBR322 DNA: H2O2 + UV; for DNA damage inhibition IC50: pBR322 DNA + H2O2 + UV, mean ± SD of three experiments
Procedure: The assay was performed using the method described by Habib et al.[17]. Briefly, 6 μL of 30% H2O2 was added to an Eppendorf tube with a volume of 20 μL containing 6 μL of PBS buffer, 0.2 μg of pBR322 DNA in 2 μL of 50 mM PBS (pH 7.4), and 4 μL of samples. The reactions were initiated by UV irradiation and sustained for 5 min on the surface of a UV transilluminator TFM-26 (UVP, Upland, CA, USA), with an intensity of […] at 312 nm at room temperature. At the end of the reaction, the samples were run on 0.8% agarose. […] Vitamin C and Rutin were used as positive controls.

ferritin = experiment: Labile iron inhibition assay (superoxide-dependent iron release from ferritin); format: biochemical; details: for Labile Iron IC50: inhibition of iron release from ferritin, mean ± SD of three experiments
Procedure: The mixture was illuminated using a fluorescent lamp for 90 min at 25 °C. The labile iron content was measured as described by Ibrahim et al.[22].

[3] = system: Bovine Serum Albumin (BSA); experiment: Protein oxidation induced by AAPH, SDS-PAGE; details: for Fragmentation of BSA reduced by: AAPH 30 min
Procedure: Alkylperoxyl radical-induced oxidation of Bovine Serum Albumin (BSA) was performed as described by Habib et al.[17]. In brief, BSA (0.5 mg mL^−1) was incubated with AAPH (20 mM) in the presence or absence of different extracts in a shaking water bath at 37 °C for 30 min. A protein sample without AAPH was used as control. After treatment, protein samples were mixed with loading buffer and heated at 100 °C for 5 min. An aliquot of each sample was loaded and separated using 10% SDS-PAGE under reducing conditions. The free stained gels were imaged using a ChemiDoc MV gel documentation system (Bio-Rad, Hercules, CA, USA). To determine the amount of protein damage, band intensity was determined using the Image Lab 4.1 software (version 6.1.0 build 7) (Bio-Rad, Hercules, CA, USA). The optical density of each band was determined and standardized for the control group.

SMILES	DPPH IC50 [1] [µg/mL]	ABTS scavenging ([2]; at 0.1 mg/mL) [%]	ABTS scavenging ([2]; at 5 mg/mL) [%]	ABTS IC50 [2] [µg/mL]	Tyrosinase IC50 (mushroom tyrosinase) [µg/mL]	Porcine α-amylase IC50 (Porcine α-amylase) [µg/mL]	supercoiled (SC) form of pBR322 DNA (pBR322 plasmid DNA; at 0.1 mg/mL) [%]	supercoiled (SC) form of pBR322 DNA (pBR322 plasmid DNA; at 5 mg/mL) [%]	DNA damage inhibition IC50 (pBR322 plasmid DNA) [µg/mL]	percentage inhibition of iron release from ferritin (ferritin; at 10 μg) [%]	percentage inhibition of iron release from ferritin (ferritin; at 50 μg) [%]	percentage inhibition of iron release from ferritin (ferritin; at 100 μg) [%]	Labile Iron IC50 (ferritin) [µg/mL]	IC50 (Porcine α-amylase) [µM]	Fragmentation of BSA reduced by ([3]; at 0.1 mg/mL) [%]	Fragmentation of BSA reduced by ([3]; at 5 mg/mL) [%]	BSA damage inhibition IC50 ([3]; BSA + AAPH, mean ± SD of three experiments) [µg/mL]
O=C1O[C@H]([C@@H](O)CO)C(O)=C1O [VC, vitamin C]	880 ± 0.52	88.29 ± 0.22	92.69 ± 0.32	0.68 ± 0.12	42.74 ± 0.23	87.24 ± 0.71	11.50 ± 0.63	19.10 ± 0.91	42.03 ± 1.06	–	–	–	–	–	–	–	–
Cc1c(C)c2c(c(C)c1O)CCC(C)(C(=O)O)O2 (centres unmarked) [Trolox]	–	–	–	–	–	–	–	–	–	39.33 ± 0.54	84.79 ± 3.00	87.87 ± 1.87	12.57 ± 0.64	–	–	–	–
O=C(O)c1cc(O)c(O)c(O)c1 [Gallic acid]	–	–	–	–	–	–	–	–	–	50.68 ± 0.18	59.22 ± 0.81	68.55 ± 0.38	4.86 ± 0.23	–	–	–	–
C[C@@H]1O[C@@H](OC[C@H]2O[C@@H](Oc3c(-c4ccc(O)c(O)c4)oc4cc(O)cc(O)c4c3=O)[C@H](O)[C@@H](O)[C@@H]2O)[C@H](O)[C@H](O)[C@H]1O [Rutin]	–	48.10 ± 0.07	90.13 ± 0.04	6.31 ± 1.00	72.08 ± 0.54	–	13.50 ± 0.52	66.50 ± 0.57	2.45 ± 0.13	85.32 ± 0.56	90.30 ± 0.01	96.65 ± 0.01	0.08 ± 0.14	130	94.12 ± 0.20	99.10 ± 0.24	4.42 ± 0.24
